Data reported in patent US8829015B2 (Novartis AG, priority 2005, dated 2014).
Values after ≈ are worked out from the molar mass of the structure shown. Structures can show the parent of a compound that is named as a salt.

Key:
[1] = Equilibration of free base forms with solvents, XRPD; assay type: physicochemical; conditions: thirteen solvents, one day, 25° C.
Source text: The solid part was investigated by XRPD.

physchem [2] = conditions: aqueous buffer solution, pH 1, simulated gastric fluid, thermodynamic from solid
physchem [3] = conditions: tetrahydrofuran/water (1:1), 25 °C, aqueous with cosolvent or surfactant or cyclodextrin, thermodynamic from solid
[4] = Hygroscopicity (water uptake); assay type: physicochemical; conditions: 25° C. up to 80% r.h.
[5] = Thermal properties by TGA and DSC; assay type: physicochemical
Source text: Form A's basic thermal properties were studied by thermogravimetric analysis (TGA) and differential scanning calorimetry (DSC) and are as follows:

[6] = Solubility by gravimetric techniques at different temperatures, residue by XRPD
[7] = Form conversion on exposure to solvent vapor, air, moisture or room conditions; assay type: physicochemical; conditions: in the presence of ethanol
[8] = Stability studies on storage; assay type: physicochemical; conditions: storage at various relative humidities
[9] = pH of 1% solution or suspension in water; assay type: physicochemical; conditions: 1% in water; listed as Hydrochloride monohydrate (form B)
[10] = Equilibration of hydrochloride forms A, B and C with solvents, XRPD; assay type: physicochemical
Source text: Then the solutions were filtered and the solid part investigated by XRPD.

[11] = Intrinsic dissolution rate (rotating disk); assay type: physicochemical; conditions: for Intrinsic dissolution rate: 37° C., 200 rpm
Protocol: Intrinsic Dissolution Rate (IDR): Dissolution rate measurements were performed at 37° C. using the rotating disk method (VanKell Instrument). A single rotation speed of 200 rpm was used. For IDR in 0.1N HCl, an 800 mL volume, and for IDR in water, a 200 mL volume were used. The solution was continuously pumped through a UV measuring cell and recycled to the dissolution vessel.
The measurements were carried out on a VanKel instrument using a Cary 100 photometer.

[12] = Wetting with granulating solvent, XRPD; assay type: physicochemical; conditions: dried under vacuum
Source text: The material is vortexed between each addition. Then the material is dried under vacuum to <2% or less and evaluated for form and degree of crystallinity by XRPD or DSC.

[13] = Compression with a hydraulic press, XRPD; assay type: physicochemical; conditions: 5 minutes at 10 tons, room temperature
[14] = Equilibration of hydrochloride form B with solvents (approximate solubility by gravimetry, form by XRPD); conditions: for Solubility: equilibrated at least 20 hours
[15] = 0.1N HCl, 50° C., after 24 hours

## Cc1cn(-c2cc(NC(=O)c3ccc(C)c(Nc4nccc(-c5cccnc5)n4)c3)cc(C(F)(F)F)c2)cn1 [Form A of the free base]
[1]
  form transition on equilibration: No form transitions occurred
Physchem [2]
  Solubility: > 200 µg/mL
Physchem [3]
  Solubility: 1780 µg/mL (≈ 3.36 mM)
[4]
  hygroscopicity: slightly hygroscopic
  maximum water uptake: less than 2%
[5]
  Decomposition temperature: >300 °C

## Cc1cn(-c2cc(NC(=O)c3ccc(C)c(Nc4nccc(-c5cccnc5)n4)c3)cc(C(F)(F)F)c2)cn1 [Form B of the hydrochloride salt]
[6]; 0.0001N HCl, 25° C., after 24 hours
  Solubility: 470 µg/mL
[6]; 0.0001N HCl, 50° C., after 24 hours
  Solubility: 1320 µg/mL
[6]; 0.001N HCl, 25° C., after 24 hours
  Solubility: 700 µg/mL
[6]; 0.001N HCl, 50° C., after 24 hours
  Solubility: 1340 µg/mL
[6]; 0.01N HCl, 25° C., after 24 hours
  Solubility: 690 µg/mL
[6]; 0.01N HCl, 50° C., after 24 hours
  Solubility: 1440 µg/mL
[6]; 0.1N HCl, 25° C., after 24 hours
  Solubility: 2360 µg/mL
[6]; [15]
  Solubility: 6620 µg/mL
  XRPD (form of the solid): B + A
[6]; Methanol, 25° C., after 24 hours
  Solubility: 14370 µg/mL
[6]; Methanol, 50° C., after 24 hours
  Solubility: 52110 µg/mL
[6]; Methanol/Water (95/5) v/v, 20° C., 10 minutes
  Solubility: 13640 µg/mL
[6]; Methanol/Water (95/5) v/v, 20° C., 1 hour
  Solubility: 13430 µg/mL
[6]; Methanol/Water (95/5) v/v, 20° C., 24 hours
  Solubility: 13010 µg/mL
[6]; Methanol/Water (95/5) v/v, 45° C., 10 minutes
  Solubility: 34490 µg/mL
[6]; Methanol/Water (95/5) v/v, 45° C., 1 hour
  Solubility: 38180 µg/mL
[6]; Methanol/Water (95/5) v/v, 45° C., 24 hours
  Solubility: 41700 µg/mL
[6]; Methanol/Water (95/5) v/v, −10° C., 10 minutes
  Solubility: 9420 µg/mL
[6]; Methanol/Water (95/5) v/v, −10° C., 1 hour
  Solubility: 6650 µg/mL
[6]; Methanol/Water (95/5) v/v, −10° C., 24 hours
  Solubility: 4850 µg/mL
[6]; Methanol/Water (99.5/0.5) v/v, 20° C., 10 minutes
  Solubility: 12900 µg/mL
[6]; Methanol/Water (99.5/0.5) v/v, 20° C., 1 hour
  Solubility: 13780 µg/mL
[6]; Methanol/Water (99.5/0.5) v/v, 20° C., 24 hours
  Solubility: 12210 µg/mL
[6]; Methanol/Water (99.5/0.5) v/v, 45° C., 10 minutes
  Solubility: 33290 µg/mL
[6]; Methanol/Water (99.5/0.5) v/v, 45° C., 1 hour
  Solubility: 39390 µg/mL
[6]; Methanol/Water (99.5/0.5) v/v, 45° C., 24 hours
  Solubility: 40400 µg/mL
[6]; Methanol/Water (99.5/0.5) v/v, −10° C., 10 minutes
  Solubility: 7620 µg/mL
[6]; Methanol/Water (99.5/0.5) v/v, −10° C., 1 hour
  Solubility: 5630 µg/mL
[6]; Methanol/Water (99.5/0.5) v/v, −10° C., 24 hours
  Solubility: 4000 µg/mL
[6]; Water, 25° C., after 24 hours
  Solubility: 1280 µg/mL
[6]; Water, 50° C., after 24 hours
  Solubility: 1400 µg/mL
[7]
  form conversion: converts to form A
[8]
  form transition after storage: No form transitions were observed
[9]
  pH of 1% solution or suspension in water: 2.53
[10]; 10 different solvents (ethanol, methanol, water, ethanol/water 99:1, methanol/water 99:1 and 99.3:0.7, methanol/HCl 0.1N, diethylether, hexane, tetrahydrofuran), one day, 25° C.
  form transition on equilibration: No form transitions occurred
[10]; ethanol, 50° C., 2 days
  form transition on equilibration: transitioned to a mixture of forms A and B
[11]; Water, listed as Hydrochloride monohydrate (form B)
  Intrinsic dissolution rate: 0.0024 mg min^−1cm^−2
[11]; dissolution medium HCl 0.0001 N
  Intrinsic Dissolution Rate value: 0.0010 mg/min/cm^2
[11]; dissolution medium HCl 0.001 N
  Intrinsic Dissolution Rate value: 0.0045 mg/min/cm^2
[11]; dissolution medium HCl 0.01 N
  Intrinsic Dissolution Rate value: 0.0224 mg/min/cm^2
[11]; dissolution medium HCl 0.1 N
  Intrinsic Dissolution Rate value: 0.1003 mg/min/cm^2
[11]; dissolution medium Water
  Intrinsic Dissolution Rate value: 0.0001 mg/min/cm^2
[11]; pH 1 (0.1 N HCl)
  Intrinsic dissolution rate: 0.17 mg min^−1cm^−2
[12]; granulating solvent Ethanol
  XRPD results after granulation: No change
[12]; granulating solvent Water
  XRPD results after granulation: No change
[13]
  change of crystalline modification (by XRPD) after compression: no change of crystalline modification
[14]; Acetonitrile, 25° C.
  Solubility: 0.3 mg/g
[14]; Acetonitrile, 50° C.
  Solubility: 2.1 mg/g
[14]; Acetonitrile-water 1:1, 25° C.
  Solubility: 10.3 mg/g
[14]; DMSO, 50° C.
  Solubility: >27.5 mg/g
[14]; Ethanol (96%), 25° C.
  Solubility: 3.9 mg/g
[14]; Ethanol (96%), 50° C.
  Solubility: 22.4 mg/g
[14]; Ethanol, 50° C.
  Solubility: 26.5 mg/g
[14]; Ethanol-water 1:1, 50° C.
  Solubility: 17.2 mg/g
[14]; Ethyl acetate, 25° C.
  Solubility: 0.3 mg/g
[14]; Ethyl acetate, 50° C.
  Solubility: 3.0 mg/g
[14]; Methanol, 25° C.
  Solubility: 16.3 mg/g
[14]; Methanol, 50° C., at least 20 hours
  Form (XRPD) after equilibration: Solvate (as wet cake - dries to B)
[14]; Methanol, 50° C.
  Solubility: >27.5 mg/g
[14]; Propan-2-ol, 25° C.
  Solubility: 1.5 mg/g
[14]; Propan-2-ol, 50° C.
  Solubility: 4.8 mg/g
[14]; Tetrahydrofuran, 25° C.
  Solubility: 5.8 mg/g
[14]; Tetrahydrofuran-water 1:1, 25° C.
  Solubility: 12.2 mg/g
[14]; Toluene, 25° C.
  Solubility: 1.3 mg/g
[14]; Toluene, 50° C.
  Solubility: 5.6 mg/g
